Measurements taken from US12162885B2, “Crystal form of Xevinapant for treating LA SCCHN” (CRYSTAL PHARMACEUTICAL (SUZHOU) CO., LTD., priority 2022, dated 2024).
Entries after “also recorded” stand apart in the source; their conditions may differ.

Key:
[1] = Storage stability of drug substance with open package (HPLC purity, XRPD form, appearance); type: physicochemical
Protocol: An appropriate amount of Form CSI was packaged with corresponding condition, and then stored with open package under 25° C./60% RH, 40° C./75% RH and 60° C./75% RH conditions for a period. Appropriate amounts of prior art solids were packaged with corresponding condition, and then stored with open package under 25° C./60% RH and 60° C./75% RH conditions for a period. Chemical purity and crystalline form were checked by HPLC and XRPD, respectively. The appearance comparison of prior art solid A and Solid B before and after storage are shown in FIG. 19 and FIG. 20, respectively.
Open: Put the sample into a glass vial, cover the vial with aluminum foil, and punch 5-10 holes in the foil.
An appropriate amount of Form CSII and prior art solids were packaged with corresponding conditions, and then stored with open package under 25° C./60% RH and 60° C./75% RH for a period. Chemical purity and crystalline form were checked by HPLC and XRPD, respectively. The appearance comparison of prior art solid A and Solid B before and after storage are shown in FIG. 19 and FIG. 20, respectively.

Hygroscopicity by DVS = type: physicochemical; settings: from 0% RH to 80% RH
Protocol: Dynamic Vapor Sorption (DVS) was measured via an SMS (Surface Measurement Systems Ltd.) intrinsic DVS instrument. The instrument control software is DVS-Intrinsic control software. Typical Parameters for DVS test are as follows: • Temperature: 25° C. • Gas and flow rate: N2, 200 mL/min • dm/dt: 0.002%/min • RH range: 0% RH-95% RH DVS analyzer was applied to evaluate the hygroscopicity of Form CSI with about 10 mg of sample. […] DVS analyzer was applied to evaluate the hygroscopicity of Form CSII with about 10 mg of sample.

[2] = Stability of crystalline form in the formulation process (XRPD); type: physicochemical; settings: formulation of Table 9, process of Table 10
Protocol: An XRPD of blank prescription (excipients) and the samples before and after the formulation were tested, and result is shown in FIG. 24. […] [table] [table] An XRPD of Blank prescription (excipients) and Form CSII before and after the formulation were tested, and result is shown in FIG. 28.

[3] = Humidity stability test with DVS analyzer; type: physicochemical; settings: DVS 0% RH-95% RH
Protocol: Dynamic Vapor Sorption (DVS) was measured via an SMS (Surface Measurement Systems Ltd.) intrinsic DVS instrument. The instrument control software is DVS-Intrinsic control software. Typical Parameters for DVS test are as follows: • Temperature: 25° C. • Gas and flow rate: N2, 200 mL/min • dm/dt: 0.002%/min • RH range: 0% RH-95% RH
DVS analyzer was applied to evaluate the humidity stability of prior art solids, Form CSI and Form CSII. The appearance of Form CSI before and after humidity stability test is shown in FIG. 12, and an XRPD pattern of Form CSI before and after test is shown in FIG. 13. The appearance of Form CSII before and after humidity stability test is shown in FIG. 14, and an XRPD pattern of Form CSII before and after test is shown in FIG. 15.

[4] = Stability upon mechanical force (ball milling, tableting; XRPD); type: physicochemical; settings: for Crystalline form before and after tableting (XRPD): manual tablet press, 20 kN, 6 mm round tooling; for Crystal form before and after ball milling (XRPD): milled 5 min at 500 rpm in a ball mill
Protocol: Form CSI was milled for 5 min at a vibration speed of 500 rpm in a ball mill. The sample before and after ball milling were checked by XRPD. […] An appropriate amount of Form CSI was compressed into a tablet using a manual tablet press under a pressure of 20 kN with a ϕ6 mm round tooling. Crystalline form before and after tableting were checked by XRPD. […] Form CSII was milled for 5 min at a vibration speed of 500 rpm in a ball mill. The sample before and after ball milling were checked by XRPD. […] An appropriate amount of Form CSII was compressed into a tablet using a manual tablet press under a pressure of 20 kN with a @6 mm round tooling. Crystalline form before and after tableting were checked by XRPD.

LA SCCHN = settings: phase 2 clinical trial, combination with CRT compared to CRT alone; cited from earlier work
[5] = Initial (baseline of storage stability)

| Structure (SMILES) | Appearance ([1]; Initial) | Form ([1]; Initial) | Purity [1, 5] [%] | Weight gain (Hygroscopicity by DVS) [%] | Appearance after test [3] | Crystal change before and after humidity stability test (XRPD) [3] | Crystalline form before and after tableting (XRPD) [4] | Crystal form before and after ball milling (XRPD) [4] | Appearance ([1]; 25° C./60% RH, Open, 1 month) | Form ([1]; 25° C./60% RH, Open, 1 month) | Purity ([1]; 25° C./60% RH, Open, 1 month) [%] | Appearance ([1]; 60° C./75% RH, Open, 1 week) | Form ([1]; 60° C./75% RH, Open, 1 week) | Crystalline form before and after the formulation process (XRPD) [2] | other results |
| --- | --- | --- | --- | --- | --- | --- | --- | --- | --- | --- | --- | --- | --- | --- | --- |
| CN[C@@H](C)C(=O)N[C@H]1CN(C(=O)CC(C)C)CC[C@H]2CC[C@@H](C(=O)NC(c3ccccc3)c3ccccc3)N2C1=O [Form CSI] | Powder | Form CSI | 99.50 | 0.46 | Powder | no crystal change | keeps stable after tableting | No crystal change | – | – | – | – | – | keeps stable before and after the formulation process | Time stable ([1]; 25° C./60% RH open condition): at least 6 months; Appearance ([1]; 25° C./60% RH, Open, 6 months): Powder; Form ([1]; 25° C./60% RH, Open, 6 months): Form CSI; Purity ([1]; 25° C./60% RH, Open, 6 months): 99.45%; Time stable ([1]; 40° C./75% RH open condition): at least 6 months; Appearance ([1]; 40° C./75% RH, Open, 6 months): Powder; Form ([1]; 40° C./75% RH, Open, 6 months): Form CSI; Purity ([1]; 40° C./75% RH, Open, 6 months): 99.45%; Time stable ([1]; 60° C./75% RH open condition): at least 3 months; Appearance ([1]; 60° C./75% RH, Open, 3 months): Powder; Form ([1]; 60° C./75% RH, Open, 3 months): Form CSI |
| CN[C@@H](C)C(=O)N[C@H]1CN(C(=O)CC(C)C)CC[C@H]2CC[C@@H](C(=O)NC(c3ccccc3)c3ccccc3)N2C1=O [Xevinapant, (5S,8S,10aR)—N-benzhydryl-5-((S)-2-(methylamino)propanamido)-3-(3-methylbutanoyl)-6-oxodecahydropyrrolo[l,2-a][l,5]diazocine-8-carboxamide] | – | – | – | – | – | – | – | – | – | – | – | – | – | – | Efficacy in treating patients with LA SCCHN (LA SCCHN): demonstrated efficacy |
| CN[C@@H](C)C(=O)N[C@H]1CN(C(=O)CC(C)C)CC[C@H]2CC[C@@H](C(=O)NC(c3ccccc3)c3ccccc3)N2C1=O [Form CSII] | Powder | Form CSII | – | 1.16 | Powder | no crystal change | kept stable after tableting | keeps stable after ball milling | – | – | – | – | – | keeps stable before and after the formulation process | Physical stability ([1]; 60° C./75% RH open condition): keeps physically stable for at least four weeks; Appearance ([1]; 60° C./75% RH, Open, 4 weeks): Powder; Form ([1]; 60° C./75% RH, Open, 4 weeks): No crystal change; also recorded: Form CSII |

The next lines start with results.

| Appearance ([1]; Initial) | Form ([1]; Initial) | Purity [1, 5] [%] | Weight gain (Hygroscopicity by DVS) [%] | Appearance after test [3] | Crystal change before and after humidity stability test (XRPD) [3] | Crystalline form before and after tableting (XRPD) [4] | Crystal form before and after ball milling (XRPD) [4] | Appearance ([1]; 25° C./60% RH, Open, 1 month) | Form ([1]; 25° C./60% RH, Open, 1 month) | Purity ([1]; 25° C./60% RH, Open, 1 month) [%] | Appearance ([1]; 60° C./75% RH, Open, 1 week) | Form ([1]; 60° C./75% RH, Open, 1 week) | Structure (SMILES) | Crystalline form before and after the formulation process (XRPD) [2] | other results |
| --- | --- | --- | --- | --- | --- | --- | --- | --- | --- | --- | --- | --- | --- | --- | --- |
| Powder | Amorphous | 98.87 | – | Transparent solid | – | – | – | Powder | Amorphous | 98.73 | Gel | Gel | CN[C@@H](C)C(=O)N[C@H]1CN(C(=O)CC(C)C)CC[C@H]2CC[C@@H](C(=O)NC(c3ccccc3)c3ccccc3)N2C1=O.O=C(O)C(F)(F)F [Prior art Solid B, reference compound] | – | – |
| Powder | Amorphous | 98.77 | – | Transparent solid | – | – | – | Powder | Amorphous | 98.65 | Gel | Gel | CN[C@@H](C)C(=O)N[C@H]1CN(C(=O)CC(C)C)CC[C@H]2CC[C@@H](C(=O)NC(c3ccccc3)c3ccccc3)N2C1=O.Cl [Prior art Solid A, reference compound] | – | – |
